How the values were obtained:
Type in all cases: functional
SNB-75 = test: Growth inhibition of human SNB75 cells after 48 hrs by sulforhodamine B assay; details: SNB-75, 48 h; for TGI: read-out: pTGI (converted)
SW-620 = test: Growth inhibition of human SW620 cells after 48 hrs by sulforhodamine B assay; details: SW-620, 48 h; for TGI: read-out: pTGI (converted)
HOP-62 = test: Growth inhibition of human HOP62 cells after 48 hrs by sulforhodamine B assay; details: HOP-62, 48 h; for TGI: read-out: pTGI (converted)
HOP-92 = test: Growth inhibition of human HOP92 cells after 48 hrs by sulforhodamine B assay; details: HOP-92, 48 h; for TGI: read-out: pTGI (converted)
MDA-MB-435 = test: Growth inhibition of human MDA-MB-435 cells after 48 hrs by sulforhodamine B assay; details: MDA-MB-435, 48 h; for TGI: read-out: pTGI (converted)
COLO 205 = test: Growth inhibition of human COLO205 cells after 48 hrs by sulforhodamine B assay; details: COLO 205, 48 h; for TGI: read-out: pTGI (converted)
IGROV-1 = test: Growth inhibition of human IGROV1 cells after 48 hrs by sulforhodamine B assay; details: IGROV-1, 48 h; for TGI: read-out: pTGI (converted)
EKVX = test: Growth inhibition of human EKVX cells after 48 hrs by sulforhodamine B assay; details: for TGI: read-out: pTGI (converted)
BT-549 = test: Growth inhibition of human BT549 cells after 48 hrs by sulforhodamine B assay; details: BT-549, 48 h; for TGI: read-out: pTGI (converted)
OVCAR-8 = test: Growth inhibition of human OVCAR8 cells after 48 hrs by sulforhodamine B assay; details: OVCAR-8, 48 h; for TGI: read-out: pTGI (converted)
PC-3 = test: Growth inhibition of human PC3 cells after 48 hrs by sulforhodamine B assay; details: PC-3, 48 h; for CC50: read-out: pLC50 (the source's name) (converted); for TGI: read-out: pTGI (converted)
KM12 = test: Growth inhibition of human KM12 cells after 48 hrs by sulforhodamine B assay; details: KM12, 48 h; for TGI: read-out: pTGI (converted)
HT-29 = test: Growth inhibition of human HT-29 cells after 48 hrs by sulforhodamine B assay; details: HT-29, 48 h; for TGI: read-out: pTGI (converted)
UO-31 = test: Growth inhibition of human UO31 cells after 48 hrs by sulforhodamine B assay; details: UO-31, 48 h; for TGI: read-out: pTGI (converted)
TK-10 = test: Growth inhibition of human TK10 cells after 48 hrs by sulforhodamine B assay; details: TK-10, 48 h; for TGI: read-out: pTGI (converted)
U-251 = test: Growth inhibition of human U251 cells after 48 hrs by sulforhodamine B assay; details: U-251, 48 h; for TGI: read-out: pTGI (converted)
A549 = test: Growth inhibition of human A549 cells after 48 hrs by sulforhodamine B assay; details: A549, 48 h; for TGI: read-out: pTGI (converted)
NCI-H460 = test: Growth inhibition of human NCI-H460 cells after 48 hrs by sulforhodamine B assay; details: NCI-H460, 48 h; for TGI: read-out: pTGI (converted)
K562 = test: Growth inhibition of human K562 cells after 48 hrs by sulforhodamine B assay; details: K562, 48 h
UACC-257 = test: Growth inhibition of human UACC257 cells after 48 hrs by sulforhodamine B assay; details: UACC-257, 48 h; for TGI: read-out: pTGI (converted)
SF-295 = test: Growth inhibition of human SF295 cells after 48 hrs by sulforhodamine B assay; details: SF-295, 48 h; for TGI: read-out: pTGI (converted)
SK-MEL-5 = test: Growth inhibition of human SK-MEL-5 cells after 48 hrs by sulforhodamine B assay; details: SK-MEL-5, 48 h; for TGI: read-out: pTGI (converted)
MCF7 = test: Growth inhibition of human MCF7 cells after 48 hrs by sulforhodamine B assay; details: MCF7, 48 h
CAKI-1 = test: Growth inhibition of human Caki1 cells after 48 hrs by sulforhodamine B assay; details: CAKI-1, 48 h; for TGI: read-out: pTGI (converted)
786-0 = test: Growth inhibition of human 786-0 cells after 48 hrs by sulforhodamine B assay; details: 786-0, 48 h; for CC50: read-out: pLC50 (the source's name) (converted); for TGI: read-out: pTGI (converted)
M14 = test: Growth inhibition of human M14 cells after 48 hrs by sulforhodamine B assay; details: M14, 48 h; for TGI: read-out: pTGI (converted)
DU-145 = test: Growth inhibition of human DU145 cells after 48 hrs by sulforhodamine B assay; details: DU-145, 48 h

COc1cc(/C=C/c2cc(F)c3c(c2)C[C@@H]2C(C)(C)[C@H](O)CC[C@@]2(C)O3)cc(O)c1C/C=C(\C)CCC=C(C)C
GI50 (SNB-75): 2.95 µM | LC50 (SNB-75): 37.2 µM | TGI (SNB-75): 13.8 µM | GI50 (SW-620): 3.02 µM | LC50 (SW-620): 33.1 µM | TGI (SW-620): 9.12 µM | GI50 (HOP-62): 7.41 µM | LC50 (HOP-62): 44.7 µM | TGI (HOP-62): 20 µM | GI50 (HOP-92): 3.39 µM | LC50 (HOP-92): 57.5 µM | TGI (HOP-92): 12.6 µM | GI50 (MDA-MB-435): 13.2 µM | LC50 (MDA-MB-435): 63.1 µM | TGI (MDA-MB-435): 28.8 µM | GI50 (COLO 205): 12 µM | LC50 (COLO 205): 55 µM | TGI (COLO 205): 25.7 µM | GI50 (IGROV-1): 2.95 µM | LC50 (IGROV-1): 53.7 µM | TGI (IGROV-1): 7.94 µM | GI50 (EKVX): 11.7 µM | LC50 (50% lethal concentration) (EKVX): 91.2 µM | TGI (EKVX): 33.1 µM | GI50 (BT-549): 9.12 µM | LC50 (BT-549): > 100 µM | TGI (BT-549): 37.2 µM | GI50 (OVCAR-8): 4.37 µM | LC50 (OVCAR-8): 50.1 µM | TGI (OVCAR-8): 16.2 µM | GI50 (PC-3): 5.13 µM | CC50 (PC-3): > 100 µM | TGI (PC-3): 25.1 µM | GI50 (KM12): 1.91 µM | LC50 (KM12): 8.32 µM | TGI (KM12): 3.98 µM | GI50 (HT-29): 2.57 µM | LC50 (concentration killing 50% of cells) (HT-29): 41.7 µM | TGI (HT-29): 11 µM | GI50 (UO-31): 2.51 µM | LC50 (UO-31): 27.5 µM | TGI (UO-31): 6.46 µM | GI50 (TK-10): 15.8 µM | LC50 (TK-10): 67.6 µM | TGI (TK-10): 32.4 µM | GI50 (U-251): 2.04 µM | LC50 (U-251): 15.8 µM | TGI (U-251): 5.01 µM | LC50 (A549): 15.8 µM | GI50 (A549; read-out: GI50): 2.14 µM | GI50 (A549; read-out: pGI50 (converted)): 2.14 µM | TGI (A549): 4.9 µM | GI50 (NCI-H460): 1.86 µM | LC50 (concentration killing 50% of cells) (NCI-H460): 6.76 µM | TGI (NCI-H460): 3.55 µM | GI50 (K562): 2.4 µM | LC50 (K562): > 100 µM | GI50 (UACC-257): 16.2 µM | LC50 (UACC-257): 93.3 µM | TGI (UACC-257): 38.9 µM | LC50 (SF-295): 69.2 µM | GI50 (SF-295; read-out: GI50): 5.01 µM | GI50 (SF-295; read-out: pGI50 (converted)): 5.01 µM | TGI (SF-295): 21.4 µM | GI50 (SK-MEL-5): 7.08 µM | LC50 (SK-MEL-5): 44.7 µM | TGI (SK-MEL-5): 20 µM | GI50 (MCF7): 13.8 µM | LC50 (MCF7): 64.6 µM | TGI (MCF7; read-out: pTGI (converted)): 30.2 µM | GI50 (CAKI-1): 10.2 µM | LC50 (CAKI-1): 53.7 µM | TGI (CAKI-1): 23.4 µM | GI50 (786-0): 3.31 µM | CC50 (786-0): 38.9 µM | TGI (786-0): 10.2 µM | GI50 (M14): 12.9 µM | LC50 (M14): 57.5 µM | TGI (M14): 26.9 µM

COCOc1cc(/C=C/c2cc(C=O)c3c(c2)C[C@@H]2C(C)(C)[C@H](O)CC[C@@]2(C)O3)cc(OC)c1C/C=C(\C)CCC=C(C)C
GI50 (SNB-75): 1.62 µM | LC50 (SNB-75): > 100 µM | TGI (SNB-75): > 100 µM | GI50 (SW-620): 10.2 µM | LC50 (SW-620): > 100 µM | TGI (SW-620): 44.7 µM | GI50 (HOP-62): 4.9 µM | LC50 (HOP-62): > 100 µM | TGI (HOP-62): > 100 µM | GI50 (HOP-92): 15.8 µM | LC50 (HOP-92): > 100 µM | TGI (HOP-92): > 100 µM | GI50 (MDA-MB-435): 6.76 µM | LC50 (MDA-MB-435): > 100 µM | TGI (MDA-MB-435): 69.2 µM | GI50 (COLO 205): 3.47 µM | LC50 (COLO 205): 51.3 µM | TGI (COLO 205): 9.33 µM | GI50 (IGROV-1): 9.77 µM | LC50 (IGROV-1): > 100 µM | TGI (IGROV-1): > 100 µM | GI50 (EKVX): 5.5 µM | LC50 (50% lethal concentration) (EKVX): > 100 µM | TGI (EKVX): > 100 µM | GI50 (BT-549): 3.89 µM | LC50 (BT-549): > 100 µM | TGI (BT-549): 63.1 µM | GI50 (OVCAR-8): 17 µM | LC50 (OVCAR-8): > 100 µM | TGI (OVCAR-8): 61.7 µM | GI50 (PC-3): 8.13 µM | CC50 (PC-3): > 100 µM | TGI (PC-3): > 100 µM | GI50 (KM12): 7.94 µM | LC50 (KM12): > 100 µM | TGI (KM12): 75.9 µM | GI50 (HT-29): 4.37 µM | LC50 (concentration killing 50% of cells) (HT-29): > 100 µM | TGI (HT-29): > 100 µM | GI50 (UO-31): 4.07 µM | LC50 (UO-31): > 100 µM | TGI (UO-31): > 100 µM | GI50 (TK-10): 25.1 µM | LC50 (TK-10): > 100 µM | TGI (TK-10): > 100 µM | GI50 (U-251): 1.74 µM | LC50 (U-251): > 100 µM | TGI (U-251): 60.3 µM | LC50 (A549): > 100 µM | GI50 (A549; read-out: GI50): 7.8 µM | GI50 (A549; read-out: pGI50 (converted)): 7.76 µM | TGI (A549): > 100 µM | GI50 (NCI-H460): 5.89 µM | LC50 (concentration killing 50% of cells) (NCI-H460): > 100 µM | TGI (NCI-H460): > 100 µM | GI50 (K562): 4.37 µM | LC50 (K562): > 100 µM | TGI (K562; read-out: pTGI (converted)): 47.9 µM | GI50 (UACC-257): 3.98 µM | LC50 (UACC-257): > 100 µM | TGI (UACC-257): 49 µM | LC50 (SF-295): > 100 µM | GI50 (SF-295; read-out: GI50): 1.2 µM | GI50 (SF-295; read-out: pGI50 (converted)): 1.2 µM | TGI (SF-295): 4.37 µM | GI50 (SK-MEL-5): 7.24 µM | LC50 (SK-MEL-5): 58.9 µM | TGI (SK-MEL-5): 22.9 µM | GI50 (CAKI-1): 3.98 µM | LC50 (CAKI-1): > 100 µM | TGI (CAKI-1): > 100 µM | GI50 (786-0): 1.02 µM | CC50 (786-0): > 100 µM | TGI (786-0): > 100 µM | GI50 (M14): 11.2 µM | LC50 (M14): > 100 µM | TGI (M14): 64.6 µM | GI50 (DU-145): 13.5 µM | LC50 (DU-145): > 100 µM | TGI (DU-145; read-out: pTGI (converted)): > 100 µM

— ChEMBL document CHEMBL1926642, “Relevance of the C-5 position to schweinfurthin induced cytotoxicity” (2011)
